For data set [1] the following is noted: mice, oral; literature value; cited from earlier work.
Data set [2] can be described thus: saluretic efficiency test in rats: elimination of water, sodium, chloride and potassium in 6 h urine after oral dosing. It counts as in vivo. Conditions: rats, oral; for change in vivo at 40 µmol/kg / change in vivo at 80 µmol/kg: Rattus norvegicus. As to the method:
In order to test the saluretic efficiency of the compounds of the invention rats having a weight of 150 to 200 g were used. The animals were kept without food, but not without drinking water, for 15 hours before the beginning of the test. The test substances were administered to groups of four rats, of substantially equal weight, with a rigid stomach probe in a 1% methyl cellulose slime. The dose required per 100 g animal (unit dosage in μmol/kg body weight) was contained in one ml. Following the administration of the substance the rats were given 5 ml 0.9% sodium chloride solution per 100 g body weight p.o. and placed in a diuresis funnel after manually emptying the bladder. Urine was collected for 6 hours in an airconditioned chamber at 24°±1° C. and a relative air humidity of 50±5%. The diuretic effect of a particular dose was tested on at least two, but more frequently however on four to eight groups of rats. Two sodium chloride controls were also used for each test day.
At the end of the collecting periods the volumes of urine discharged per group were noted and the pH value and also the content of sodium, potassium (flame-photometrically) and chloride (measured argentometrically with the determination of the end point potentiometrically) were determined.
From the analysis results the quantities of Na^+, K^+ and Cl^- eliminated were calculated in […] body weight, and the values thus obtained compared with those of the control animals.
Means values and twice the standard deviation were calculated from the data for the sodium chloride controls, in order to determine the normal range. Then, for the values found with the test substances, the percentage variations from the average in respect of these parameters were calculated and tabulated. In this connection, with the results given in Table 1, the upper limit of the normal range, which is defined as the mean value plus twice the standard deviation, was selected as the reference quantity for the variations. In this way relevant hyper-eliminations could clearly be recognised.
In Table 2, the mean percentage variations in potassium elimination after administration of the compounds in accordance with the invention are compared with the mean value of the potassium elimination in the case of the sodium chloride controls. At the same time the […] ratio is given which provides conclusive evidence of the effective saluretic property. The larger this quotient is, then the more sodium than potassium is eliminated in proportion.

Data set [3] in a line: comparison of toxicity in mice: oral LD50 by the Lichtfiel & Wilcoxon method. The data set is classed as in vivo. The settings on record: mouse, in vivo, observation period 7 days, 95% confidence limit in brackets, read-out: LD50. From the text:
In Table 3 the mean lethal doses for mice, administered orally (LD50 determination by the […] & WILCOXON method - J.Pharmacol. Exp. Ther. 96,98 (1949)) are compared.

The mark [4] stands for this setting: 6 h, 40 μmol/kg body wt., relative to mean K+ elimination of the controls, read-out: Mean percentage variation in the elimination of potassium.
Where [5] appears, read: 6 h, 80 μmol/kg body wt., relative to mean K+ elimination of the controls, read-out: Mean percentage variation in the elimination of potassium.
The mark [6] stands for this setting: 40 μmol/kg body wt., deviation from control mean plus twice the standard deviation, 6 h urine, read-out: Mean percentage variation in the elimination of Chloride.
The mark [7] stands for this setting: 40 μmol/kg body wt., deviation from control mean plus twice the standard deviation, 6 h urine, read-out: Mean percentage variation in the elimination of H2O.
[8] abbreviates: 40 μmol/kg body wt., deviation from control mean plus twice the standard deviation, 6 h urine, read-out: Mean percentage variation in the elimination of Sodium.
The mark [9] stands for this setting: 80 μmol/kg body wt., deviation from control mean plus twice the standard deviation, 6 h urine, read-out: Mean percentage variation in the elimination of Chloride.
[10] abbreviates: 80 μmol/kg body wt., deviation from control mean plus twice the standard deviation, 6 h urine, read-out: Mean percentage variation in the elimination of H2O.
The mark [11] stands for this setting: 80 μmol/kg body wt., deviation from control mean plus twice the standard deviation, 6 h urine, read-out: Mean percentage variation in the elimination of Sodium.

Read-outs that look alike come from different tables or passages of the source.

Consider `N=C(N)NC(=O)c1nc(Cl)c(N)nc1N` [N-amidino-3.5-diamino-6-chloropyrazinocarboxamide], for which the LD50 in data set [1] is reported as 70 mg/kg.

For `CCCC(C)(C)c1cc(C)c(OC)c(C(O)(c2ccccc2)C(C)N2CCCC2)c1` (centres unmarked) [T 2111, 1-(2'-methoxy-3'-methyl-5'-tertiary-hexylphenyl)-1-phenyl-2-pyrrolidino-propan-1-ol], the change in vivo at 40 µmol/kg is 19.4% in data set [2] (setting [4]), 9.5% in data set [2] (setting [6]), 36.8% in data set [2] (setting [7]) and 33.5% in data set [2] (setting [8]). Further, the change in vivo at 80 µmol/kg in data set [2] (setting [5]) was -7.1%; in data set [2] (setting [9]), 23.4%; in data set [2] (setting [10]), 33.8%; in data set [2] (setting [11]), 37.1%. In addition, the “Quotient Na/K” value was 6.64 in data set [2] (40 μmol/kg body wt.) and 8.77 in data set [2] (80 μmol/kg body wt.). Besides, the median lethal dose (LD50) in data set [3] came out at 4450 mg/kg.

For the molecule `COc1cc(C)c(C(O)(c2ccccc2)C(C)N2CCCC2)cc1C(C)(C)C` (centres unmarked) [T 1856, 1-(4'-methoxy-2'-methyl-5'-tert-butylphenyl)-1-phenyl-2-pyrrolidino-propan-1-ol], the change in vivo at 40 µmol/kg turned out to be 25.5% in data set [2] (setting [4]), 19.4% in data set [2] (setting [6]), 41% in data set [2] (setting [7]) and 30.6% in data set [2] (setting [8]). Also, the change in vivo at 80 µmol/kg in data set [2] (setting [5]) was found to be 22.4%; in data set [2] (setting [9]) it was 32.5%; in data set [2] (setting [10]), 59.7%; in data set [2] (setting [11]), 47.6%. The “Quotient Na/K” value in data set [2] (40 μmol/kg body wt.) is listed as 6.18; in data set [2] (80 μmol/kg body wt.), 7.16. Further, the LD50 in data set [3] came to 2200 mg/kg.

For orientation: LD50 means the dose expected to kill half of the subjects tested.

The values above are taken from patent US4361573A, “α,α-Diaryl-β-(tert-amino)-propanols and diuretic pharmaceutical compositions containing them” (Temmler AG, priority 1974, dated 1982).
